# Source: patent publication US20220380338A1, “CYCLOALKYL 3-OXOPIPERAZINE CARBOXAMIDES AND CYCLOHETEROALKYL 3-OXOPIPERAZINE CARBOXAMIDES AS NAV1.8 INHIBITORS” (Merck Sharp & Dohme LLC, priority 2021, published 2022)
# Target: T1, human NaV1.8 (Homo sapiens, UniProt Q9Y5Y9)
# T1 construct: expressed in transfected cells
# Test: Nav1.8 Qube® Assay (automated 384-well patch-clamp, inhibition of sodium current)
# Type: cell-based
# Details: human NaV1.8 channels stably expressed in HEK 293 cells, room temperature
# In short: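 Whole-cell voltage clamp at room temperature in HEK293 cells stably expressing NaV1.8; from −90 mV hold, 10 s 1 Hz train of 20 ms pulses to 10 mV with 980 ms repolarization to −67 mV. Peak currents of 1st and 10th pulses give resting and inactivated-state IC50s, Hill fit.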
# T1 sequence (Q9Y5Y9 whole entry): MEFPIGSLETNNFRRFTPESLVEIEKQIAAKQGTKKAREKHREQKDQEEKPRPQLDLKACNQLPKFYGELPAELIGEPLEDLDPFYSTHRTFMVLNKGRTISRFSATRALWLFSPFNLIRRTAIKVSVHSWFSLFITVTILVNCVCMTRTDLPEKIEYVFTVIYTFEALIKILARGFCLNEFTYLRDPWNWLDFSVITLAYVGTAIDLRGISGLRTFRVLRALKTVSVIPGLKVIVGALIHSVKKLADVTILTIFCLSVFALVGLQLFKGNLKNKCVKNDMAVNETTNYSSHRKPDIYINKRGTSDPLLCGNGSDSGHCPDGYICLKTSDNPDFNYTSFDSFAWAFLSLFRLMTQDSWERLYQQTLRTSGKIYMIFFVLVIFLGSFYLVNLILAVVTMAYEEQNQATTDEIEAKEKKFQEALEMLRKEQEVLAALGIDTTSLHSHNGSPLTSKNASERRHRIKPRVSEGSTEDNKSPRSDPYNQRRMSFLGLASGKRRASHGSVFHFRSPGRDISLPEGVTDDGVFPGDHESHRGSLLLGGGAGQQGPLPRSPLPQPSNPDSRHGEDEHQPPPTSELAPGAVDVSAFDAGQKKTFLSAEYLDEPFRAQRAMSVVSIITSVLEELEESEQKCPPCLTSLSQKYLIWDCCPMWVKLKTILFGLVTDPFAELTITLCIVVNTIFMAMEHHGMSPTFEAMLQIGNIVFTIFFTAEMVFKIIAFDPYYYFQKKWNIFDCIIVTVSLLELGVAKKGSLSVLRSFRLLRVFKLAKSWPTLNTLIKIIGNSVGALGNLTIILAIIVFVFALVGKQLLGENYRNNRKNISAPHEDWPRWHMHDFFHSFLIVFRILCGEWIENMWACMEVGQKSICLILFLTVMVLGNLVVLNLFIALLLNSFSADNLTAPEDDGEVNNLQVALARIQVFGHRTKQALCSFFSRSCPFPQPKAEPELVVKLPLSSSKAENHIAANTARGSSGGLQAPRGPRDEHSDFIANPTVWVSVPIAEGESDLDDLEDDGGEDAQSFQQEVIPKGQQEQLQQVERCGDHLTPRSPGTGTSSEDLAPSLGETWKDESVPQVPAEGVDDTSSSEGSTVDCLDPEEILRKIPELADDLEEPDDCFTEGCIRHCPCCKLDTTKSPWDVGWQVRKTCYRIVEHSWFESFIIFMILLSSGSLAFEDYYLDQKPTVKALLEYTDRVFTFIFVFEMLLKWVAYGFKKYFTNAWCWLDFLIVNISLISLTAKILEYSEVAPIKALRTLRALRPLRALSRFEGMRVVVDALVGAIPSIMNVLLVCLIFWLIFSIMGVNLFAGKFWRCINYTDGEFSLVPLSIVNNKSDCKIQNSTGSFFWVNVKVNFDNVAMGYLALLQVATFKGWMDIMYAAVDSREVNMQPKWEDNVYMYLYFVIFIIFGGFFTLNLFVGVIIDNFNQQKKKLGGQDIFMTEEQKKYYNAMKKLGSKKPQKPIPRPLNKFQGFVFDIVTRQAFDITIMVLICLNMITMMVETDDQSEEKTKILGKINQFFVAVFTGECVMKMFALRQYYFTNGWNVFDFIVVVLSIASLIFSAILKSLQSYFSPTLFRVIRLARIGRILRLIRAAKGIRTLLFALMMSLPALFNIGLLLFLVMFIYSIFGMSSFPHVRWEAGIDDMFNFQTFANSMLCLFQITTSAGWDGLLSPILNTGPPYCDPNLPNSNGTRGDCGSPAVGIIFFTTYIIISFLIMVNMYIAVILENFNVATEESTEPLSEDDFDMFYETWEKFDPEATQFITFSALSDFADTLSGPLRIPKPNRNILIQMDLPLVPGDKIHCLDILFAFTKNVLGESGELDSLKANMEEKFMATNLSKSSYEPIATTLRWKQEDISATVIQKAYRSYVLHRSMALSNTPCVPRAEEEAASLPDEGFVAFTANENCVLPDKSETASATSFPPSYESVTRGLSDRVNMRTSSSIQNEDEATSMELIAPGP
row,IC50,Compound
1,10.1 nM,"C[C@@H]1C(=O)NCCN1C(=O)NC(c1ccc(F)c(C(F)(F)F)c1)C1CCC(C(F)(F)F)OC1 (single isomer, unassigned) [Example 60A, (2R)—N-((1(R or S))-(4-fluoro-3-(trifluoromethyl)phenyl)-trans-(6-(trifluoromethyl)tetrahydro-2H-pyran-3-yl)methyl)-2-methyl-3-oxopiperazine-1-carboxamide]"
2,51.2 nM,"C[C@@H]1C(=O)NCCN1C(=O)NC(c1ccc(F)c(C(F)(F)F)c1)C1CCC(C(F)(F)F)OC1 (single isomer, unassigned) [Example 60B, (2R)—N-((1(R or S))-(4-fluoro-3-(trifluoromethyl)phenyl)-trans-(6-(trifluoromethyl)tetrahydro-2H-pyran-3-yl)methyl)-2-methyl-3-oxopiperazine-1-carboxamide]"
3,3.2 nM,"C[C@@H]1C(=O)NCCN1C(=O)NC(c1ccc(F)c(Cl)c1F)C1COc2ccccc2C1 (single isomer, unassigned) [Example 62A, (R)—N—((R or S)-(3-chloro-2,4-difluorophenyl)((R or S)-chroman-3-yl)methyl)-2-methyl-3-oxopiperazine-1-carboxamide]"
4,358 nM,"C[C@@H]1C(=O)NCCN1C(=O)NC(c1ccc(F)c(Cl)c1F)C1COc2ccccc2C1 (single isomer, unassigned) [Example 62B, (R)—N—((R or S)-(3-chloro-2,4-difluorophenyl)((S or R)-chroman-3-yl)methyl)-2-methyl-3-oxopiperazine-1-carboxamide]"
5,488 nM,"C[C@@H]1C(=O)NCCN1C(=O)NC(c1ccc(F)c(Cl)c1F)C1COc2ccccc2C1 (single isomer, unassigned) [Example 62C, (R)—N—((S or R)-(3-chloro-2,4-difluorophenyl)((R or S)-chroman-3-yl)methyl)-2-methyl-3-oxopiperazine-1-carboxamide]"
6,0.8 nM,"C[C@@H]1C(=O)NCCN1C(=O)NC(c1ccc(F)c(Cl)c1F)C1COc2ccccc2C1 (single isomer, unassigned) [Example 62D, (R)—N—((S or R)-(3-chloro-2,4-difluorophenyl)((S or R)-chroman-3-yl)methyl)-2-methyl-3-oxopiperazine-1-carboxamide]"
7,1.8 nM,"O=C1NCCN(C(=O)N[C@H](c2ccc(F)c(Cl)c2F)[C@H]2C[C@H](C(F)(F)F)C2)C1C(F)(F)F (single isomer, unassigned) [Example 63A, (R or S)—N—((S)-(3-chloro-2,4-difluorophenyl)((trans)-3-(trifluoromethyl)cyclobutyl)methyl)-3-oxo-2-(trifluoromethyl)piperazine-1-carboxamide]"
8,9.1 nM,"O=C1NCCN(C(=O)N[C@H](c2ccc(F)c(Cl)c2F)[C@H]2C[C@H](C(F)(F)F)C2)C1C(F)(F)F (single isomer, unassigned) [Example 63B, (S or R)—N—((S)-(3-chloro-2,4-difluorophenyl)((trans)-3-(trifluoromethyl)cyclobutyl)methyl)-3-oxo-2-(trifluoromethyl)piperazine-1-carboxamide]"

# More lines, now with the values behind:
row,Compound,IC50
1,"C[C@@H]1C(=O)NCCN1C(=O)NC(c1csc(C(F)(F)F)n1)[C@H]1CC[C@H](C(F)(F)F)CC1 (single isomer, unassigned) [Example 55A]",494 nM
2,"C[C@@H]1C(=O)NCCN1C(=O)NC(c1csc(C(F)(F)F)n1)[C@H]1CC[C@H](C(F)(F)F)CC1 (single isomer, unassigned) [Example 55B]",26.3 nM
3,"C[C@@H]1C(=O)NCCN1C(=O)NC(c1ccc(F)c(Cl)c1F)[C@H]1C[C@@H]1C(F)(F)F (single isomer, unassigned) [Example 57C]",566 nM
4,"C[C@@H]1C(=O)NCCN1C(=O)NC(c1ccc(F)c(Cl)c1F)[C@H]1C[C@@H]1C(F)(F)F (single isomer, unassigned) [Example 57D]",12 nM
5,"C[C@@H]1C(=O)NCCN1C(=O)NC(c1ccc(F)c(Cl)c1F)C1CCC(C(F)(F)F)C1 (single isomer, unassigned) [Example 58A, (2R)—N—((R or S)-(3-chloro-2,4-difluorophenyl)(cis-3-(trifluoromethyl)cyclopentyl)methyl)-2-methyl-3-oxopiperazine-1-carboxamide]",9.23 nM
6,"C[C@@H]1C(=O)NCCN1C(=O)NC(c1ccc(F)c(Cl)c1F)C1CCC(C(F)(F)F)C1 (single isomer, unassigned) [Example 58B, (2R)—N—((R or S)-(3-chloro-2,4-difluorophenyl)(cis-3-(trifluoromethyl)cyclopentyl)methyl)-2-methyl-3-oxopiperazine-1-carboxamide]",5.65 nM
7,"C[C@@H]1C(=O)NCCN1C(=O)NC(c1ccc(F)c(Cl)c1F)C1CCC(C(F)(F)F)C1 (single isomer, unassigned) [Example 58C, (2R)—N—((R or S)-(3-chloro-2,4-difluorophenyl)(trans-3-(trifluoromethyl)cyclopentyl)methyl)-2-methyl-3-oxopiperazine-1-carboxamide]",5.1 nM
8,"C[C@@H]1C(=O)NCCN1C(=O)NC(c1ccc(F)c(Cl)c1F)C1CCC(C(F)(F)F)C1 (single isomer, unassigned) [Example 58D, (2R)—N—((R or S)-(3-chloro-2,4-difluorophenyl)(trans-3-(trifluoromethyl)cyclopentyl)methyl)-2-methyl-3-oxopiperazine-1-carboxamide]",6.03 nM
9,"[2H]C1([2H])NC(=O)C(C)N(C(=O)N[C@H](c2ccc(F)c(Cl)c2F)[C@H]2C[C@H](C(F)(F)F)C2)C1([2H])[2H] (single isomer, unassigned) [Example 59A, (R or S)—N—((S)-(3-chloro-2,4-difluorophenyl)((trans)-3-(trifluoromethyl)cyclobutyl)methyl)-2-methyl-3-oxopiperazine-5,5,6,6-d4-1-carboxamide]",2.6 nM
10,"[2H]C1([2H])NC(=O)C(C)N(C(=O)N[C@H](c2ccc(F)c(Cl)c2F)[C@H]2C[C@H](C(F)(F)F)C2)C1([2H])[2H] (single isomer, unassigned) [Example 59B, (S or R)—N—((S)-(3-chloro-2,4-difluorophenyl)((trans)-3-(trifluoromethyl)cyclobutyl)methyl)-2-methyl-3-oxopiperazine-5,5,6,6-d4-1-carboxamide]",44 nM
11,"C[C@@H]1C(=O)NCCN1C(=O)N[C@@H](c1ccc(F)c(Cl)c1F)[C@H]1C[C@H](C(F)(F)F)C1 [Example 20B, (R)—N—((R)-(3-chloro-2,4-difluorophenyl)(trans-3-(trifluoromethyl)cyclobutyl)methyl)-2-methyl-3-oxopiperazine-1-carboxamide]",191 nM
12,"O=C1CN(C(=O)N[C@H](c2ccc(F)c(Cl)c2F)[C@H]2C[C@H](C(F)(F)F)C2)CCN1 [Example 26, N—((S)-(3-chloro-2,4-difluorophenyl)(trans-3-(trifluoromethyl)cyclobutyl)methyl)-3-oxopiperazine-1-carboxamide]",6.82 nM
13,"[2H][C@@]1(CF)C(=O)NCCN1C(=O)N[C@H](c1ccc(F)c(Cl)c1F)[C@H]1C[C@H](C(F)(F)F)C1 [Example 61, (S)—N—((S)-(3-chloro-2,4-difluorophenyl)((trans)-3-(trifluoromethyl)cyclobutyl)methyl)-2-(fluoromethyl)-3-oxopiperazine-2-d-1-carboxamide]",0.7 nM
14,"O=C1NCCN(C(=O)N[C@H](c2ccc(F)c(Cl)c2F)[C@H]2C[C@H](C(F)(F)F)C2)[C@@H]1CO [Example 64, (R)—N—((S)-(3-chloro-2,4-difluorophenyl)((trans)-3-(trifluoromethyl)cyclobutyl)methyl)-2-(hydroxymethyl)-3-oxopiperazine-1-carboxamide]",3.2 nM
